Laboratory results published in the supplement of paper PMC11451515.

Test system: SEM cells
Assay: cell viability relative to DMSO control; higher = less cytotoxic
Details: 48 h
How it was run: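 Viability values are per-plate percentages of DMSO wells, with background from cell-free wells. Library compounds in DMSO were pin-dosed, in an 11-point threefold series from 47 μM to 0.79 nM, onto NOMO1 or SEM (500 cells/well) or P12-Ichikawa (1000 cells/well) leukemia cells in 1536-well plates (5 μl). Those cells had been adapted for at least four passages in each medium, and CellTiter-Glo One luminescence was read after 48 h at 37°C.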

[1] = HPLM + 10% dialyzed FBS, 0.000781 µM
[2] = HPLM + 10% dialyzed FBS, 0.00234 µM
[3] = HPLM + 10% dialyzed FBS, 0.00702 µM
[4] = HPLM + 10% dialyzed FBS, 0.0211 µM
[5] = HPLM + 10% dialyzed FBS, 0.0632 µM
[6] = HPLM + 10% dialyzed FBS, 0.19 µM
[7] = HPLM + 10% dialyzed FBS, 0.569 µM
[8] = HPLM + 10% dialyzed FBS, 1.71 µM
[9] = HPLM + 10% dialyzed FBS, 5.12 µM
[10] = HPLM + 10% dialyzed FBS, 15.4 µM
[11] = HPLM + 10% dialyzed FBS, 46.1 µM
[12] = RPMI 5 mM glucose + 10% FBS, 0.000781 µM
[13] = RPMI 5 mM glucose + 10% FBS, 0.00234 µM
[14] = RPMI 5 mM glucose + 10% FBS, 0.00702 µM
[15] = RPMI 5 mM glucose + 10% FBS, 0.0211 µM
[16] = RPMI 5 mM glucose + 10% FBS, 0.0632 µM
[17] = RPMI 5 mM glucose + 10% FBS, 0.19 µM
[18] = RPMI 5 mM glucose + 10% FBS, 0.569 µM
[19] = RPMI 5 mM glucose + 10% FBS, 1.71 µM
[20] = RPMI 5 mM glucose + 10% FBS, 5.12 µM
[21] = RPMI 5 mM glucose + 10% FBS, 15.4 µM
[22] = RPMI 5 mM glucose + 10% FBS, 46.1 µM
[23] = RPMI 5 mM glucose + 10% dialyzed FBS, 0.000781 µM
[24] = RPMI 5 mM glucose + 10% dialyzed FBS, 0.00234 µM
[25] = RPMI 5 mM glucose + 10% dialyzed FBS, 0.00702 µM
[26] = RPMI 5 mM glucose + 10% dialyzed FBS, 0.0211 µM
[27] = RPMI 5 mM glucose + 10% dialyzed FBS, 0.0632 µM
[28] = RPMI 5 mM glucose + 10% dialyzed FBS, 0.19 µM
[29] = RPMI 5 mM glucose + 10% dialyzed FBS, 0.569 µM
[30] = RPMI 5 mM glucose + 10% dialyzed FBS, 1.71 µM
[31] = RPMI 5 mM glucose + 10% dialyzed FBS, 5.12 µM
[32] = RPMI 5 mM glucose + 10% dialyzed FBS, 15.4 µM
[33] = RPMI 5 mM glucose + 10% dialyzed FBS, 46.1 µM

Row | Compound | cell viability [1] [%] | cell viability [2] [%] | cell viability [3] [%] | cell viability [4] [%] | cell viability [5] [%] | cell viability [6] [%] | cell viability [7] [%] | cell viability [8] [%] | cell viability [9] [%] | cell viability [10] [%] | cell viability [11] [%] | cell viability [12] [%] | cell viability [13] [%] | cell viability [14] [%] | cell viability [15] [%] | cell viability [16] [%] | cell viability [17] [%] | cell viability [18] [%] | cell viability [19] [%] | cell viability [20] [%] | cell viability [21] [%] | cell viability [22] [%] | cell viability [23] [%] | cell viability [24] [%] | cell viability [25] [%] | cell viability [26] [%] | cell viability [27] [%] | cell viability [28] [%] | cell viability [29] [%] | cell viability [30] [%] | cell viability [31] [%] | cell viability [32] [%] | cell viability [33] [%]
1 | COc1cc(C[C@@H](CO)[C@H](CO)Cc2ccc(O)c(OC)c2)ccc1O | 84 | 89.3 | 92.1 | 95 | 104 | 109 | 114 | 107 | 111 | 89.1 | 105 | 91.8 | 85.1 | 88.4 | 81.8 | 91.7 | 105 | 106 | 104 | 105 | 110 | 93.3 | 85.7 | 92.7 | 98.1 | 99.7 | 113 | 102 | 105 | 112 | 108 | 108 | 110
2 | NC(=O)N1CCC(CC(=O)N2CCC([C@H]3c4ncc(Br)cc4CCc4cc(Cl)cc(Br)c43)CC2)CC1 | 106 | 99.3 | 114 | 124 | 111 | 118 | 72.5 | 57.1 | 48.6 | 45.7 | 34.8 | 114 | 122 | 120 | 129 | 111 | 122 | 82.4 | 66.3 | 46 | 44.4 | 24.1 | 98.1 | 109 | 110 | 101 | 97.2 | 114 | 95.9 | 84.4 | 56.1 | 58 | 17.8
3 | c1ccc2c(CN3CCNCC3)cccc2c1 | 102 | 102 | 115 | 108 | 100 | 126 | 108 | 107 | 102 | 98.8 | 98.8 | 85.5 | 104 | 98.6 | 107 | 97.4 | 101 | 97.1 | 103 | 92.7 | 101 | 105 | 97.7 | 106 | 126 | 124 | 128 | 122 | 106 | 131 | 95.7 | 103 | 84
4 | CC(C)(C)NCC(O)c1ccc(O)c(CO)c1 (stereo not given) | 101 | 99.4 | 103 | 106 | 113 | 102 | 112 | 106 | 104 | 109 | 93.6 | 118 | 113 | 115 | 112 | 108 | 125 | 109 | 95.5 | 107 | 108 | 111 | 96.9 | 112 | 109 | 124 | 115 | 114 | 111 | 116 | 120 | 122 | 114
5 | NC[C@H](O)c1ccc(O)c(O)c1 | 93.3 | 102 | 111 | 101 | 95.9 | 98.2 | 92 | 85.4 | 92.8 | 84.5 | 78.4 | 84 | 115 | 102 | 109 | 97.7 | 100 | 97 | 89.5 | 97.5 | 82.8 | 81.5 | 84.9 | 103 | 88.5 | 103 | 104 | 99.1 | 100 | 91.9 | 96.7 | 96.9 | 72.9
6 | COc1cc2c(cc1OC)CN(CCc1ccc(NC(=O)c3cccc4c(=O)c5cccc(OC)c5[nH]c34)cc1)CC2 | 84.4 | 98.8 | 103 | 105 | 106 | 109 | 105 | 105 | 36.4 | 8.23 | 5.66 | 91.1 | 85.9 | 82.9 | 90.8 | 77.2 | 83.5 | 85.2 | 9.76 | 8.45 | 5.57 | 4.07 | 108 | 112 | 104 | 112 | 122 | 116 | 94.3 | 24.4 | 11.2 | 5.96 | 3.77
7 | CC[C@H](C)C(=O)O[C@H]1C[C@@H](C)\C=C2\C=C/[C@H](C)[C@H](CC[C@@H]3C[C@@H](O)CC(=O)O3)[C@@H]12 | 71.1 | 85.1 | 100 | 87.9 | 90.3 | 93.8 | 56.6 | 86 | 82.6 | 59.8 | 65.7 | 51.9 | 91.1 | 92.5 | 89.8 | 93.2 | 95 | 84.8 | 81.9 | 81.2 | 63.2 | 64.5 | 80.9 | 84.6 | 106 | 92.6 | 97 | 108 | 30 | 99.8 | 98 | 71.6 | 61.1
8 | C[S+](=O)([O-])N1CCN(Cc2cc3nc(-c4cccc5[nH]ncc45)nc(N4CCOCC4)c3s2)CC1 | 97.5 | 121 | 116 | 111 | 103 | 92.4 | 82 | 74.9 | 56.9 | 31.7 | 12.9 | 106 | 121 | 129 | 105 | 112 | 108 | 89 | 67.4 | 46.6 | 23.2 | 8.22 | 115 | 122 | 129 | 127 | 110 | 106 | 78.6 | 78 | 57 | 42.6 | 16
9 | CC1(C)[C@@H](O)CC[C@@]2(C)[C@H]1CC[C@]3(C)[C@@H]2C(=O)\C=C/4[C@@H]5C[C@](C)(CC[C@]5(C)CC[C@@]34C)C(O)=O | 99.3 | 98.8 | 99.7 | 104 | 105 | 93.9 | 99 | 110 | 99.3 | 90.7 | 86.9 | 98.4 | 113 | 108 | 108 | 101 | 113 | 97.3 | 108 | 99.6 | 101 | 86.1 | 100 | 92.7 | 112 | 109 | 98.6 | 108 | 114 | 103 | 90.2 | 107 | 102
10 | Cc1noc(N[S+](=O)([O-])c2ccc(N)cc2)c1C | 80.2 | 93.5 | 104 | 88.1 | 93.2 | 102 | 83.1 | 96.3 | 99.8 | 90.1 | 102 | 87.6 | 97.5 | 89.7 | 88.5 | 96.2 | 110 | 96 | 114 | 98 | 100 | 92.3 | 99.2 | 91.5 | 96.3 | 89.5 | 120 | 103 | 111 | 104 | 103 | 108 | 99.1
11 | CN1CCC(CNc2ccc3ncc(-c4cccc(OC(F)(F)F)c4)n3n2)CC1 | 107 | 102 | 104 | 95.6 | 89.1 | 89.7 | 74.5 | 49.7 | 41.6 | 32.2 | 5.1 | 109 | 110 | 113 | 97.4 | 96.4 | 97.6 | 78.3 | 52.9 | 42.5 | 35.5 | 6.26 | 93.3 | 109 | 92.8 | 98.7 | 99.4 | 87.3 | 77.3 | 42.3 | 32.4 | 30.4 | 6.78
12 | COc1cccc(N(C)C(=S)Oc2ccc3c(c2)CCCC3)n1 | 75.6 | 66.4 | 85.4 | 88.1 | 91.2 | 84 | 95.4 | 82.5 | 76.5 | 82.8 | 65.6 | 75 | 83 | 86.7 | 94 | 104 | 96.2 | 93.1 | 97 | 99.3 | 97.9 | 92.8 | 96.7 | 95.1 | 90.2 | 93.3 | 91.3 | 100 | 101 | 97.5 | 87.8 | 98.5 | 84.6
13 | O=C(NOCC1CC1)c1ccc(F)c(F)c1Nc1ccc(I)cc1Cl | 91 | 87.8 | 109 | 113 | 99.7 | 99.5 | 113 | 116 | 95.8 | 75.5 | 77.1 | 95.8 | 93.7 | 112 | 108 | 94.7 | 93.8 | 106 | 94.2 | 85.5 | 67.3 | 53.1 | 101 | 89.9 | 115 | 104 | 102 | 78.2 | 103 | 89.6 | 84.8 | 59.7 | 59.7
14 | C/C=C(\C)C(=O)N[C@@H](c1ccccc1)[C@@H](O)C(=O)O[C@H]1C[C@@]2(O)[C@@H](OC(=O)c3ccccc3)[C@@H]3[C@]4(OC(C)=O)CO[C@@H]4C[C@H](O)[C@@]3(C)C(=O)[C@H](OC(C)=O)C(=C1C)C2(C)C | 34 | 24.3 | 33.2 | 20.6 | 19.2 | 19.8 | 14.9 | 19.6 | 19.9 | 15.9 | 20.5 | 45.4 | 22.3 | 23.3 | 18.4 | 14.1 | 15.5 | 15.4 | 14.9 | 14.3 | 12.5 | 12.2 | 32.4 | 26.1 | 25 | 17.5 | 16.2 | 13.6 | 13.1 | 14.7 | 16.6 | 15.5 | 16.2
15 | COc1cc2c(cc1O)CCC1C2CC[C@@]2(C)C1CC[C@@H]2O (stereo not given in full) | 88.7 | 114 | 98.4 | 25.9 | 108 | 113 | 95.8 | 73.2 | 40.7 | 31.4 | 26.2 | 120 | 108 | 129 | 22 | 124 | 125 | 107 | 84.2 | 49.1 | 23.5 | 21.7 | 116 | 118 | 126 | 24.6 | 118 | 123 | 108 | 88.7 | 40.2 | 26.5 | 28.2
